Where a name gives a salt, the structure may show the parent alone.
Experiments:
[1] = test system: gastric mucosa lesion induced by 96% ethanol containing hydrochloric acid; assay: Protective action against the gastric mucosa lesion induced by 96% ethanol containing hydrochloric acid (acid-ethanol gastric ulcer), p.o.; type: in vivo; conditions: Rattus norvegicus, po, rats, 0.5 ml of 1:0.02 mixture of 96% ethanol and hydrochloric acid, read-out: ID50 p.o. mg/kg, gastric mucosa lesion induced by 96% ethanol containing hydrochloric acid
Protocol: As an example, the protective action of the compounds according to the invention against gastric ulcer induced by 0.5 ml of a 1:0.02 volume ratio mixture of 96% ethanol and hydrochloric acid is illustrated in Table 1. [for the method, see: Gastroenterology 77, 433 (1979)]
Protective action in rats of the compounds according to the
invention against the gastric mucosa lesion induced by 96%
ethanol containing hydrochloric acid

[2] = test system: indomethacin-induced gastric mucosa lesion; assay: Inhibition of the indomethacin-induced gastric mucosa lesion, p.o.; type: in vivo; conditions: Rattus norvegicus, po, rats, read-out: ID50 p.o. mg/kg, indomethacin-induced gastric mucosa lesion
Excerpt: The effect of the compounds to the invention, given as examples, against the indomethacin-induced ulcer [Arch. Int.
Inhibition of the indomethacin-induced gastric mucosa

[3] = test system: indomethacin-induced duodenal ulcer; assay: Indomethacin-induced duodenal/small intestine ulcer formation (method of Tsuromi), with lethality caused by indomethacin; type: in vivo, rat; conditions: 50 mg/kg on 4 consecutive days, 15 mg/kg oral indomethacin on 2nd day, vs control
Protocol: According to the method of Tsuromi (J. Pharm. Dyn. 1980, 3, 659) the compound was administered to the rats in a dose of 50 mg/kg on 4 consecutive days. On the 2nd day a 15 mg/kg oral dose of indomethacin was given to the rats. The ulcer formation was determined in the small intestine on the 3rd day following the administration of the indomethacin. In comparison to the control, the compound according to the invention exerted an inhibition of 20% on the ulcer formation and also an inhibition of 100% on the lethality caused by indomethacin.

[4] = test system: gastrointestinal ulceration induced by indomethacin; assay: Gastrointestinal ulceration induced by indomethacin (known compound); type: in vivo

Cc1cccn2c(=O)c(-c3nnnn3C(C)C)cnc12 [3-(1-isopropyl-1H-tetrazol-5-yl)-9-methyl-4-oxo-4H-pyrido[1,2-a]pyrimidine]
ED50 [1]: 0.34 mg/kg

C=CCn1nnc(-c2cnc3c(C)cccn3c2=O)n1 [3-(2-allyl-2H-tetrazol-5-yl)-9-methyl-4-oxo-4H-pyrido[1,2-a]pyrimidine]
ED50 [1]: 2.9 mg/kg | ED50 [2]: 2.5 mg/kg

CCCCn1nnc(-c2cnc3c(C)cccn3c2=O)n1 [3-(2-butyl-2H-tetrazol-5-yl)-9-methyl-4-oxo-4H-pyrido[1,2-a]pyrimidine]
ED50 [1]: 2 mg/kg

CC(C)n1nnc(-c2cnc3ccccn3c2=O)n1 [3-(2-isopropyl-2H-tetrazol-5-yl)-4-oxo-4H-pyrido[1,2-a]pyrimidine]
ED50 [1]: 2.2 mg/kg | ED50 [2]: 4 mg/kg

Cc1cccn2c(=O)c(-c3nnn(C(C)C)n3)cnc12 [3-(2-isopropyl-2H-tetrazol-5-yl)-9-methyl-4-oxo-4H-pyrido[1,2-a]pyrimidine]
ED50 [1]: 0.23 mg/kg | ED50 [2]: 2.6 mg/kg

CCCn1nnc(-c2cnc3c(C)cccn3c2=O)n1 [3-(2-propyl-2H-tetrazol-5-yl)-9-methyl-4-oxo-4H-pyrido[1,2-a]pyrimidine]
ED50 [1]: 0.05 mg/kg | inhibition on the ulcer formation in the small intestine ([3]; determined on 3rd day following indomethacin): 20% | inhibition on the lethality caused by indomethacin [3]: 100% | ED50 [2]: 5.5 mg/kg

Cc1cccn2c(=O)c(-c3nn[nH]n3)cnc12 [9-methyl-3-(5-tetrazolyl)-4-oxo-4-H-pyrido[1,2-a]pyrimidine potassium salt]
prevention of the gastrointestinal ulceration induced by indomethacin [4]: did not prevent

From patent US5475000A, “3-(substituted tetrazolyl)-4-oxo-4H-pyrido-[1,2-a]pyrimidines, salts thereof, pharmaceutical compositions containing them and process for preparing same” (Chinoin Gyogyszer-es Vegyeszeti Termekek Gyara Rt., priority 1991, dated 1995)
